# Laboratory results published in article PMC6829886, “Inhibition of Non-Small Cell Lung Cancer Cells by Oxy210, an Oxysterol-Derivative that Antagonizes TGFβ and Hedgehog Signaling” (Cells, 2019).
# Assays:
# [1] = test system: TGFβ signaling in NIH3T3-E1 cells; assay: TGFβ target gene expression (Q-RT-PCR) in NIH3T3 cells; format: cell-based, mouse; conditions: NIH3T3 cells, TGFβ 20 ng/mL
# Experimental: Total RNA was extracted with the RNeasy Plus Mini Kit from Qiagen (Hilden, Germany) according to the manufacturer’s instructions. One microgram of RNA was reverse-transcribed using an iScript Reverse Transcription Supermix from Bio-Rad Laboratories (Hercules, CA, USA) to make single-stranded cDNA. The cDNAs were then mixed with Qi SYBR Green Supermix (Bio-Rad) for quantitative RT-PCR assay using a Bio-Rad I-cycler IQ quantitative thermocycler. All PCR samples were prepared in triplicate wells in a 96-well plate. After 40 cycles of PCR, melt curves were examined in order to ensure primer specificity. Fold changes in gene expression were calculated using the ΔΔCt method. Primers used for mouse were as follows: Oaz1 (5′-CCACTGCTTCGCCAGAGAG-3′) and (5′-CCCGGACCCAGGTTACTA-3′), Gli1 (5′- […]-3′ and 5′- GCT GATCCAGCCTAAGGTTCTC-3′), Ptch1 (5′-CCATCGGCGACAAGAACC-3′ and 5′-[…]-3′), Thbs1 (5′-[…]-3′ and 5′-CGGGGATCAGGTTGGCATT-3′), Cryab (5′-[…]-3′ and 5′-[…]-3′), Egr2 (5′-[…]-3′ and 5′-[…]-3′), CTGF (5′-GGGCCTCTTCTGCGATTTC-3′ and 5′-[…]-3′).
# Figure 4 Inhibition of ligand-induced Hedgehog and TGFβ signaling in mouse fibroblast cells. NIH3T3 cells were pretreated for 2 h with Oxy210 or various inhibitors as indicated in DMEM containing 5% FBS. Next, cells were treated with CAPAN-1 conditioned medium (CM) in the absence or presence of oxysterols or inhibitors. After 72 h, RNA was extracted and analyzed by Q-RT-PCR for the expression of Hh target genes Gli1 and Ptch1 and normalized to Oaz1 expression (a,b). (c,e) NIH3T3 cells were treated in DMEM containing 0.1% BCS overnight and then pretreated for 2 h with the inhibitors as indicated in DMEM containing 0.1%BCS. The cells were then treated with TGFβ (20ng/mL) in the absence or presence of the compounds. After 48 h, RNA was extracted and analyzed by Q-RT-PCR for the expression of TGFβ target genes as indicated and normalized to Oaz1 expression. (d) NIH3T3 cells cultured in 24 well-plates were transfected with a Smad response element reporter (SBE-Luciferase) plasmid and a pTK-Renilla-Luciferase plasmid. 6 hrs after transfection, cells were treated with the test agents as indicated for 48 hrs. Luciferase activity was measured and normalized to the Renilla luciferase activity. Data from a representative experiment are reported as the mean of triplicate determinations ± SD (** p < 0.01 vs. CM (a,b) or TGFβ (c,d and e) treated cells; ## p < 0.01 vs. control).
# [2] = target: T1, Human TGFBR1 (Homo sapiens, UniProt P36897); assay: TGFβ receptor I kinase inhibition assay (Eurofins); format: biochemical; conditions: vs. positive controls Cdk1/2 Inhibitor III and PKR Inhibitor
# T1 construct: Human TGFBR1 (amino acid 200 to end); purchased Eurofins
# T1 sequence (P36897 200-503 limits assumed): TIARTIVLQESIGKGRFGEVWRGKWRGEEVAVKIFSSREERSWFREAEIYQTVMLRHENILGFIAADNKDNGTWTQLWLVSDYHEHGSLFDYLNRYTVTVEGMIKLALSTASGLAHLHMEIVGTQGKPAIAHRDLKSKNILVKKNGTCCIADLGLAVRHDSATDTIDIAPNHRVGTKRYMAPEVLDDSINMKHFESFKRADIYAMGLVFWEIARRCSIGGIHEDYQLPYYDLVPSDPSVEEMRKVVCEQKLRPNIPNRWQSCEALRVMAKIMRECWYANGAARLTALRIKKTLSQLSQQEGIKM
# Experimental: Effect of Oxy210 on inhibition of TGFβ receptors I and II kinase activity was assessed by Eurofins (Celle-L’Evescault, France). TGFBR1 (h): Human TGFBR1 (amino acid 200 to end) was incubated with 8 mM MOPS pH 7.0, 0.2 mM EDTA, 1 mM MnCl2, 2 mg/mL casein, 10 mM Magnesium acetate and […] (specific activity and concentration as required). The reaction was initiated by the addition of the Mg/ATP mix. After incubation for 40 min at room temperature, the reaction was stopped by the addition of phosphoric acid to a concentration of 0.5%. 10 μL of the reaction was then spotted onto a P30 filtermat and washed four times for 4 min in 0.425% phosphoric acid and once in methanol prior to drying and scintillation counting. TGFBR2 (h): Human TGFBR2 (amino acid 188-end) was incubated with 20 mM Tris/HCl pH 8.5, 0.2 mM EDTA, 0.33 mg/mL MBP, 10 mM Magnesium acetate and [9-33P-ATP] (specific activity and concentration as required). The reaction was initiated by the addition of the Mg/ATP mix. After incubation for 120 min at room temperature, the reaction was stopped by the addition of phosphoric acid to a concentration of 0.5%. […]
# Figure 11 Inhibition of TGFβ-induced Smad2/3 phosphorylation and transcriptional activity. […] Luciferase activity was measured and normalized to the Renilla luciferase activity. […]
# [3] = Metabolic stability in human liver microsomes; format: in vitro ADME
# [4] = test system: EGF or Il-1β target gene expression (fibronectin, IL-6) in NIH3T3-E1 or A549 cells; assay: Target gene expression after stimulation with EGF or Il-1β (pathway specificity); format: cell-based
# Source text: We content that the biological properties of Oxy210 described here are specific inhibitory effects, by and large limited to Hh and TGF β signaling, rather than the result of nonspecific binding events and/or a pan inhibition of cellular signaling.
compound,measurement,setting,value
"C[C@]12CC[C@H]3[C@@H](CC=C4C[C@@H](O)CC[C@@]43C)[C@@H]1CC[C@@H]2[C@](C)(O)CCc1cccnc1 [Oxy210, (3S,8S,9S,10R,13S,14S,17S)-17-((R)-2-hydroxy-4-(pyridin-3-yl)butan-2-yl)-10,13-dimethyl-2,3,4,7,8,9,10,11,12,13,14,15,16,17-tetradecahydro-1H-cyclopenta[a]phenanthren-3-ol]","expression of TGFβ target genes CTGF, Egr2, Thbs1 and Cryab",[1]; 48 h,strongly inhibited
same,expression of CTGF induced by TGFβ,[1]; 48 h (Figure 4e),robustly inhibited
same,inhibitory activity on TβRI in functional kinase assay,[2],did not display significant inhibitory activity
same,half-life,"[3]; human, liver microsomes, read-out: HLM, Half-Life",1.15 h
same,remaining at 1 h,"[3]; read-out: HLM, % Remaining after 60 min",55%
same,"inhibition of EGF or Il-1β target gene expression (fibronectin, IL-6)",[4],did not result in significant inhibition
